Test results as given in paper PMC12067128, “Macrocyclization: Enhancing Drug-like Properties of Discoidin Domain Receptor Kinase Inhibitors” (ACS Medicinal Chemistry Letters, 2025).
Where two headings read alike, the source gives them in different places.

Columns and labels:
[1] = test system: MDCK-WT wild-type cells
[2] = in vitro; conditions: dog, MDCK, pH 7.4
[3] = MDCK-WT permeability assay; conditions: dog, MDCK, pH 7.4
[4] = pH-metric determination of pKa values (SiriusT3); type: physicochemical; conditions: methanol/ISA water cosolvent mixtures (0.15 M KCl), MeOH:ISA water cosolvent, extrapolated to 0% cosolvent, 25 °C, n=4
Experimental: pH-metric determination of pKa values
Experimental pKa was determined by pH-metric approaches using SiriusT3 (PIon Inc. Ltd, Forrest Row, UK) instrument which integrates a dispenser module equipped with precision dispensers, 0.5 mL syringes, a multi-tip capillary bundle, a titrator module, a microstirrer with variable speed, a combined double junction Ag/AgCl pH and reference electrode and a fibre optics dip probe connected to a deuterium UV pulsed light source and a photodiode array (PDA) detector, acquiring spectra in the 200-700 nm wavelength range. SiriusT3 Control software v 1.1.3.0 was employed for acquisition, while Sirius T3 Refine software v. 1.1.3.0 was used for data analysis. The glass microelectrode was standardized by means of a strong acid-strong base titration (0.5N HCl vs. 0.5N KOH) in the pH range 2.0-12.0 at fixed temperature (25±0.5°C) and I = 0.15 M for KCl addition, in N2 atmosphere. […]
The original method was described in a previous paper.e Briefly, a HPLC Thermo Fisher Scientific Dionex Ultimate 3000 instrument equipped with a Low-Pressure Mixing Gradient Pump LPG-3400 SD, ACC-3000 autosampler with termostatable column compartment, a DAD-3000 RS Detector and Chromeleon Data System Version 7.2.10 was used. […] The dead time, t0, was determined by monitoring the baseline disturbance. […]

SMILES: c1cc2nc(n1)Nc1cnn(c1)CCCNCCOc1ccc(cc1)N2 [Compound 6a]
- permeability in the MDCK model (in words) [1]: moderately permeable
- Papp A→B at 1 h, 10 µM [2]: 5.8 ± 1.1 ×10⁻⁶ cm/s

SMILES: Cn1cc2c3nc(ncc31)Nc1cnn(c1)CCCNC(=O)COc1ccc-2cc1 [Compound 5b]
- Papp A→B at 1 h, 10 µM [3]: 21 ± 0.8 ×10⁻⁶ cm/s

SMILES: O=C1COc2ccc(cc2)Nc2ccnc(n2)Nc2cnn(c2)CCCN1 [Compound 6b]
- Papp A→B at 1 h, 10 µM [3]: 4.8 ± 1 ×10⁻⁶ cm/s

SMILES: Cn1cc2c3nc(ncc31)Nc1cnn(c1)CCCNCCOc1ccc-2cc1 [Compound 5a]
- pKa ([4]; read-out: pKa (basic), amino group (propan-1-amine)): 8.2
- pKa ([4]; read-out: pKa (basic), pyrrolo-pyrimidine moiety): 4.35
- permeability in the MDCK model (in words) [1]: highly permeable
- Papp A→B at 1 h, 10 µM [2]: 18.4 ± 0.6 ×10⁻⁶ cm/s
